Here are results for three compounds from ChEMBL document CHEMBL4477188, “Callyazepin and (3R)-Methylazacyclodecane, Nitrogenous Macrocycles from a Callyspongia sp. Sponge” (J Nat Prod, 2016).

One experiment has as its system K562. Put plainly: Cytotoxicity against human K562 cells assessed as reduction in cell viability after 72 hrs by MTT assay. It counts as functional, cell-based. The following applies: K562, 72 h. A general note: Formazan colour is commonly taken as a measure of viable cells.
A further experiment deals with Bacillus spizizenii. Put plainly: Antimicrobial activity against Bacillus subtilis ATCC 6633 after 24 hrs by serial two fold dilution method. It counts as functional. The following applies: ATCC 6633, 24 h.
In another experiment the test system is Proteus vulgaris. Put plainly: Antimicrobial activity against Proteus vulgaris ATCC 3851 after 24 hrs by serial two fold dilution method. It counts as functional. The note with it: ATCC 3851, 24 h.
Another experiment has as its system Salmonella typhimurium. Put plainly: Antimicrobial activity against Salmonella typhimurium ATCC 14028 after 24 hrs by serial two fold dilution method. The class given is functional, Salmonella enterica subsp. enterica serovar Typhimurium. The note with it: Salmonella enterica, ATCC 14028, 24 h.
The next experiment relates to A549. Put plainly: Cytotoxicity against human A549 cells assessed as reduction in cell viability after 72 hrs by MTT assay. It counts as functional, cell-based. The following applies: A549, 72 h.
The test system of the next experiment is Escherichia coli. Put plainly: Antimicrobial activity against Escherichia coli ATCC 25922 after 24 hrs by serial two fold dilution method. The note with it: ATCC 25922, 24 h. It counts as functional.
Another experiment concerns Micrococcus luteus. Put plainly: Antimicrobial activity against Micrococcus luteus IFC 12708 after 24 hrs by serial two fold dilution method. It counts as functional. The following applies: IFC 12708, 24 h.
A further experiment has as its system Staphylococcus aureus. Put plainly: Antimicrobial activity against Staphylococcus aureus ATCC 6538P after 24 hrs by serial two fold dilution method. It counts as functional.

The term IC50 denotes the midpoint of a concentration-inhibition curve. Usually MIC stands for the lowest concentration that inhibits growth of the organism.

With `C[C@@H]1CCCCCCCNC1`, the half-inhibitory concentration (IC50) in the experiment on K562 turned out to be 3.2 µM; in the experiment on A549 it was 3.8 µM. In addition, the MIC against Bacillus spizizenii, against Proteus vulgaris, in the experiment on Salmonella typhimurium, in the experiment on Escherichia coli, with Micrococcus luteus and with Staphylococcus aureus was ≥ 128 µM each time.

In the case of `COc1cccc2c1C(=O)c1c(O)c3c(c(O)c1C2=O)C[C@@](O)(C(=O)CO)C[C@@H]3O[C@H]1C[C@H](N)[C@H](O)[C@H](C)O1` [DOXORUBICIN], the IC50 came to 0.8 µM in the experiment with K562 and 0.5 µM with A549.

For the compound `COC(=O)[C@H](C)[N@@+]1(C=O)CC[C@H]2CCCCCCCCCC[C@H]2[C@@H](C)C1`, the figures for the half-maximal inhibitory concentration (IC50) in the experiment with K562 and with A549 were 7.4 µM and 3 µM, respectively. The MIC with Bacillus spizizenii, against Proteus vulgaris, in the experiment with Salmonella typhimurium, against Escherichia coli, in the experiment on Micrococcus luteus and in the experiment on Staphylococcus aureus was ≥ 128 µM in each case.
